Measurements as given in patent US9987294B2, “Mitochondria-targeted anti-tumor agents” (University of Massachusetts, priority 2007, dated 2018).
“Also recorded” adds a separate entry of the source. Counter-ions that a name gives are not always drawn. Where no end group is shown, it is not given here. [ ]: non-standard residue; d: D form.

Key:
[1] = test system: normal human fibroblast cell types (WS-1, HGF, HFF); experiment: Cell viability by MTT, normal human fibroblast cell types; conditions: concentrations comparable to those killing tumor cells
Method: Changes in protein expression in the various experiments of siRNA targeting were assessed by Western blotting. For analysis of TRAP-1-directed cytoprotection, primary nontransformed human fibroblasts HFF and WS-1 were transfected with control pcDNA3 or TRAP-1 cDNA by lipofectamine for 24 hours, exposed to increasing concentrations (0-1 μM) of the cell death stimulus staurosporine (STS), and analyzed for cell viability after additional 24 hours incubation by MTT. For analysis of apoptosis, p53+/+ or p53−/−HCT116 cells were treated with control or ANT-GA (100 μM), and analyzed for DEVDase activity (CaspaTag) and propidium iodide staining by simultaneous multiparametric flow cytometry, as described (Dohi et al., J. Clin. Invest. 114(8):1117-27, (2004); Plescia et al., Cancer Cell, 7:457-468, (2005)).

[2] = test system: TRAP-1 and Hsp90; experiment: Fractionation of Raji mitochondrial extracts over Shepherdin-Sepharose or scrambled peptidomimetic-Sepharose; type: binding, human; conditions: coupled to Sepharose beads, Western blotting
[3] = test system: Ras-transformed NIH3T3 mitochondria; experiment: Mitochondrial membrane potential of TMRM-loaded isolated mitochondria; type: biochemical
Method: Raji cells were treated with Shepherdin or control scrambled peptidomimetic (100 μM) or 17-AAG (5 μM), loaded with the mitochondrial membrane potential-sensitive fluorescent dye JC-1, and analyzed for changes in green/red fluorescence ratio by flow cytometry. For experiments in a cell-free system, purified mitochondria isolated from primary normal cells, various tumor cells types, or normal mouse organs were suspended in SB buffer. […] For these experiments, TMRM-loaded mitochondria in SB buffer were allowed to reach stable fluorescence, which was set as fully polarized state (maximum membrane potential). The fluorescence intensity after treatment with 2 mM CaCl2 was set as minimum membrane potential (fully depolarized state). Changes in fluorescence intensity after each treatment were plotted as a ratio between maximum and minimum membrane potential.

[4] = test system: lung adenocarcinoma H460 cells; experiment: Cell viability by MTT, H460; type: cell-based, human; conditions: 3 hour exposure
Method: (§1) Modulation of cell viability was determined by MTT (Kang et al., “Regulation of tumor cell mitochondrial homeostasis by an organelle-specific Hsp90 chaperone network,” Cell, 131:257-270 (2007)). For determination of apoptosis, cells were analyzed for caspase activity (DEVDase activity) and plasma membrane integrity (propidium iodide) using CaspaTag (Intergen, Burlington, Mass.), by multiparametric flow cytometry (Kang et al., “Regulation of tumor cell mitochondrial homeostasis by an organelle-specific Hsp90 chaperone network,” Cell, 131:257-270 (2007)).

[5] = test system: H460 lung adenocarcinoma xenograft tumors; experiment: Xenograft tumor growth, H460; type: in vivo, mice; conditions: i.p.; G4 and 17-AAG 2-3 mg/kg twice daily, G1 30-50 mg/Kg daily, TPP 10 mg/Kg daily
Method: To create the models used in this example, HL60 (10×10^6) or H460 (4×10^6) cells suspended in sterile PBS (200 μl) were injected subcutaneously into both flanks of 10 week-old CB17 SCID/beige (Taconic Farms) immunocompromised female mice. Alternatively, MDA-MB-231 cells (5×10^6) suspended in 200 μl of 50% Matrigel (BD Biosciences) were used for subcutaneous injection in CB17 SCID/beige mice. When superficial tumors reached volumes of 100-150 mm^3, animals were randomized in two groups (2 tumors/mouse, 3 animals/group), and treated with vehicle (DMSO) or Gamitrinib dissolved in 20% Cremophor EL (Sigma) in PBS by intraperitoneal (i.p.) injection. Gamitrinib-G4 was used as sterile i.p. injections with the following schedules: HL60 xenografts, 2 mg/Kg twice daily; H460 xenografts, 2 mg/kg twice daily for d 0, 2.5 mg/kg twice daily for d 1, 3.0 mg/kg twice daily for the duration of treatment; MDA-MB-231 xenografts, 2 mg/Kg twice daily for d 0-2, 2.5 mg/Kg twice daily for d 3-5, and 3 mg/Kg twice daily throughout the rest of the treatment. 17-AAG was dissolved in 20% Cremophor EL and used as systemic i.p. injections with the same dose-escalating regimen as Gamitrinib-G4 in H460 xenograft studies. Gamitrinib-G1 was used with following schedules: 30 mg/Kg daily (d 0-2), and 50 mg/Kg daily for the rest of treatment. Gamitrinib-TPP was used as i.p. injections at 10 mg/Kg daily throughout the duration of the experiment. Tumor measurements were taken daily with a caliper, and tumor volume was calculated with the formula ([length in millimeters]×[width in millimeters]^2)/2. Mice in the various treatment groups were weighed at the beginning and at the end of each experiment.

[6] = test system: tumor mitochondria; experiment: Cytochrome c release from drug-treated isolated tumor mitochondria; type: biochemical; conditions: 3 hours (FIG. 16D)
Method: Tumor cell types were treated with controls or the various Hsp90 antagonists, and cytosolic extracts were harvested at increasing time intervals between 5-30 minutes and analyzed by Western blotting. For experiments in a cell-free system, purified mitochondria (20 μg) were suspended in 500 μl of SB buffer (0.2 M sucrose, 10 mM Tris-MOPS, pH 7.4, 5 mM succinate, 1 mM sodium phosphate, 10 μM EGTA-Tris, and 2 μM rotenone). […] At the end of each incubation reaction, mitochondria and supernatants were separated by centrifugation at 6,000×g for 10 minutes, and analyzed by Western blotting.
(§2) The fluorescence intensity after treatment with 2 mM CaCl2 corresponded to a fully depolarized state. Alternatively, H460 cells were labeled with the fluorescent dye JC-1 (Molecular Probes), and analyzed for changes in red/green (F1-2/F1-1) fluorescence ratio after treatment with the various agents, by multiparametric flow cytometry. Cytochrome c content in pellets or supernatants of drug-treated isolated mitochondria was determined by Western blotting.

[7] = test system: isolated tumor mitochondria; experiment: Inner membrane potential of TMRM-loaded tumor mitochondria; type: biochemical
Method: as §2

[8] = test system: breast adenocarcinoma SKBr3 cells; experiment: Metabolic activity by MTT, SKBr3; type: cell-based; conditions: 10 μM; by 48 hours and throughout a 96-hours interval
Method: as §1

COC1=C2C[C@@H](C)C[C@H](OC)[C@H](O)[C@@H](C)/C=C(\C)[C@H](OC(N)=O)[C@@H](OC)/C=C\C=C(/C)C(=O)NC(=CC1=O)C2=O [GA, geldanamycin]
viability of normal human fibroblast cell types [1]: none of the compounds affected the viability of various normal human fibroblast cell types

Sheph: Shepherdin lacking the Antennapedia cell-penetrating sequence ([dL][dF][dA][dC]G[dS][dS][dH][dK])
association of Hsp90 and TRAP-1 with immobilized peptidomimetic [2]: specific elution of both TRAP-1 and Hsp90; also recorded: Hsp90 and TRAP-1 are bound by Shepherdin-Sepharose | membrane potential of mitochondria [3]: induces loss of mitochondrial membrane potential in transformed cells

CO[C@H]1/C=C\C=C(/C)C(=O)NC2=CC(=O)C(NCCCNC(=O)CCCN3C(=O)CC(SC[C@H]4CCN5CC[C@H](CO[Si](c6ccccc6)(c6ccccc6)C(C)(C)C)N=C5N4)C3=O)=C(C[C@@H](C)C[C@H](OC)[C@H](O)[C@@H](C)/C=C(\C)[C@@H]1OC(N)=O)C2=O (stereo partly drawn) [Gamitrinib-G1, (4E,6Z,8S,9S,10E,12S,13R,14S,16R)-19-(3-(4-(3-(((2R,8R)-8-((tert-butyldiphenylsilyloxy)methyl)-2,3,4,6,7,8-hexahydro-1H-pyrimido[1,2-a]pyrimidin-2-yl)methylthio)-2,5-dioxopyrrolidin-1-yl)butanamido)propylamino)-13-hydroxy-8,14-dimethoxy-4,10,12,16-tetramethyl-3,20,22-trioxo-2-azabicyclo[16.3.1]docosa-1(21),4,6,10,18-pentaen-9-yl carbamate, hexafluorophosphate salt]
cell viability [4]: had no effect | tumor growth [5]: also inhibited lung cancer growth in vivo

CO[C@H]1/C=C\C=C(/C)C(=O)NC2=CC(=O)C(NCCCNC(=O)CCCN3C(=O)CC(SC[C@H]4CCN5CC[C@H](CSC[C@H]6CCN7CC[C@H](CO[Si](c8ccccc8)(c8ccccc8)C(C)(C)C)N=C7N6)N=C5N4)C3=O)=C(C[C@@H](C)C[C@H](OC)[C@H](O)[C@@H](C)/C=C(\C)[C@@H]1OC(N)=O)C2=O (some centres unmarked) [Gamitrinib-G2]
cell viability [4]: had intermediate activity

CO[C@H]1/C=C\C=C(/C)C(=O)NC2=CC(=O)C(NCCCNC(=O)CCCN3C(=O)CC(SC[C@H]4CCN5CC[C@H](CSC[C@H]6CCN7CC[C@H](CSC[C@H]8CCN9CC[C@H](CO[Si](c%10ccccc%10)(c%10ccccc%10)C(C)(C)C)N=C9N8)N=C7N6)N=C5N4)C3=O)=C(C[C@@H](C)C[C@H](OC)[C@H](O)[C@@H](C)/C=C(\C)[C@@H]1OC(N)=O)C2=O.F[P-](F)(F)(F)(F)F.F[P-](F)(F)(F)(F)F.F[P-](F)(F)(F)(F)F (some centres unmarked) [Gamitrinib-G3]
cell viability [4]: complete loss of cell viability | IC50 ([4]; read-out: IC50, loss of cell viability): ~0.5 µM

COc1c(C)cnc(Cn2cnc3c(Cl)nc(N)nc32)c1C [BIIB021]
cytochrome c release from mitochondria [6]: had no effect on cytochrome c release

CC[C@H](C)[C@H](NC(=O)[C@H](CCCCN)NC(=O)[C@@H](NC(=O)[C@H](CCC(N)=O)NC(=O)[C@@H](N)CCCNC(=N)N)[C@@H](C)CC)C(=O)N[C@@H](Cc1c[nH]c2ccccc12)C(=O)N[C@@H](Cc1ccccc1)C(=O)N[C@@H](CCC(N)=O)C(=O)N[C@@H](CC(N)=O)C(=O)N[C@@H](CCCNC(=N)N)C(=O)N[C@@H](CCCNC(=N)N)C(=O)N[C@@H](CCSC)C(=O)N[C@@H](CCCCN)C(=O)N[C@@H](Cc1c[nH]c2ccccc12)C(=O)N[C@@H](CCCCN)C(=O)N[C@@H](CCCCN)C(=O)N[C@@H](CSC1CC(=O)N(CCCC(=O)NCCCNC2=C3C[C@@H](C)C[C@H](OC)[C@H](O)[C@@H](C)/C=C(\C)[C@H](OC(N)=O)[C@@H](OC)/C=C\C=C(/C)C(=O)NC(=CC2=O)C3=O)C1=O)C(N)=O (some centres unmarked) [ANT-GA]
viability of normal human fibroblast cell types [1]: none of the compounds affected the viability of various normal human fibroblast cell types

C=CCNc1c(O)cc2c(O)c1C[C@@H](C)C[C@H](OC)[C@H](O)[C@@H](C)/C=C(\C)[C@H](OC(N)=O)[C@@H](OC)/C=C\C=C(/C)C(=O)N2 [IPI-504]
cytochrome c release from mitochondria [6]: had no effect on cytochrome c release

CO[C@H]1/C=C\C=C(/C)C(=O)NC2=CC(=O)C(NCCN(C)C)=C(C[C@@H](C)C[C@H](OC)[C@H](O)[C@@H](C)/C=C(\C)[C@@H]1OC(N)=O)C2=O [DMAG, 17-(dimethylaminoethylamino)-17-demethoxygeldanamycin]
mitochondrial inner membrane potential [7]: did not affect mitochondrial membrane potential

CO[C@H]1/C=C\C=C(/C)C(=O)NC2=CC(=O)C(NCCCCCC[P+](c3ccccc3)(c3ccccc3)c3ccccc3)=C(C[C@@H](C)C[C@H](OC)[C@H](O)[C@@H](C)/C=C(\C)[C@@H]1OC(N)=O)C2=O [Gamitrinib-TPP, (4E,6Z,8S,9S,10E,12S,13R,14S,16R)-19-(6-(triphenylphosphonio)hexylamino)-13-hydroxy-8,14-dimethoxy-4,10,12,16-tetramethyl-3,20,22-trioxo-2-azabicyclo[16.3.1]docosa-1(21),4,6,10,18-pentaen-9-yl carbamate hexafluorophosphate]
cell viability [4]: had intermediate activity | mitochondrial inner membrane potential [7]: promptly depolarized tumor mitochondria | metabolic activity [8]: comparably reduced metabolic activity | tumor growth [5]: also inhibited lung cancer growth in vivo

CCNC(=O)c1noc(-c2cc(C(C)C)c(O)cc2O)c1-c1ccc(CN2CCOCC2)cc1 [NVP-AUY922]
cytochrome c release from mitochondria [6]: had no effect on cytochrome c release
